In one data set the target is T1, HER2 (Homo sapiens, UniProt P04626).
T1 construct: amount of phosphorylation of HER2 tyrosine of the cells; endogenous in cells; host or cells: MCF-7 human breast cancer cell line
The data set is described as follows: Inhibition of phosphorylation of receptor tyrosine (HER2) in human breast cancer cells MCF-7. Type of data set: cell-based. To be noted: MCF-7 cells, test compound 2 hours, then heregulin 0.8 μg/mL for 5 minutes. On the procedure: Inhibition of Phosphorylation of Receptor Tyrosine in Human Breast Cancer Cells
In each well of a 24-well plate, 500 μl of the cell suspension ([…]) of human breast cancer cell line MCF-7 was seeded and incubated at 37° C. in a 5% carbon dioxide gas incubator. On the next day, 250 μl of a 4-fold serial dilution of a solution of a test compound was added to each well and, 2 hours later, 250 μl of a heregulin solution, which was adjusted so as to be the final concentration of 0.8 μg/mL, was added thereto. After 5 minutes, an extracting solution was added thereto to terminate the reaction as well as to extract a protein. The protein was fractionated by protein electrophoresis and the protein in the electrophoretic gel was transferred to a nylon filter. The filter was reacted with a phosphorylated tyrosine-specific antibody. The reaction product was fluorescence-labeled and was exposed to a photo-film. The intensity of the exposure on the photo-film was quantitated by an image-analyzing apparatus.

The test system of data set [1] is human breast cancer cell line BT-474. Put plainly: In vitro inhibition of growth of breast cancer cell BT-474. The format is cell-based. To be noted: 120 h, BT-474 cells, heregulin, cultured for 5 days, SRB staining. How it is done: In vitro Inhibition of Growth of Breast Cancer Cell BT-474
In each well of a 96-well microtiter plate, 100 μl (containing 1,000 cells) of a cell suspension of human breast cancer cell line BT-474 was seeded and incubated at 37° C. in a 5% carbon dioxide gas incubator. On the next day, 100 μl of the 2-fold serial dilution of a solution of each test compound prepared by using 250 μl of a heregulin solution, which was adjusted so as to be the final concentration of 0.8 μg/mL, was added to each well and cultured for 5 days. The solution containing the test compound was removed and the cells were washed and fixed with a 50% trichloroacetic acid solution. To the cells was added a 0.4% (W/V) solution of pigment SRB (dissolved in 1% acetic acid) to fix as well as stain the cell protein (Skehan P. et al., Journal of the National Cancer Institute Vol. 82, pp. 1107-1112, 1990). The pigment solution was removed and the remainder was washed with a 1% acetic acid solution. Then, 100 μl of an extracting solution (10 mM Tris buffer) was added thereto to extract the pigment. The optical density of the extract at the wavelength of 550 nm was measured to determine the amount of the cells in terms of the amount of the protein. The proportion of the amount of remaining protein of each treated group was determined by taking the amount of protein of the control to which no solution of a test compound was added as 100% to calculate the value of the concentration of the compound required for inhibiting the remaining cells by 50% of that of the control (IC50)

For data set [2], the system named is Human breast cancer cell line BT-474. Put plainly: In vivo breast cancer inhibiting effect (BT-474 implanted in nude mice). To be noted: nude mice with BT-474 tumors, orally twice daily 30 mg/kg body weight for 10 days. On the procedure: In Vivo Breast Cancer Inhibiting Effect
Human breast cancer cell line BT-474 (5,000,000 cells) were suspended in a gel-matrix solution. The suspension was subcutaneously implanted in the breast of 6-week-old female Balb/C strain nude mice (Friedman R. et al., Proceedings of the National Academy of Sciences of the U.S.A. Vol. 87, pp. 6698-6702, 1990). At the time of the implantation and seven days after the implantation, an estradiol dipropionate solution (5 mg/mL) was intramuscularly administered to the hind leg for the purpose of enhancing a take ratio of tumors. Fourteen days after the implantation, the diameters of tumors were determined. For the experiment were used 5 mice per group with similar tumor size. Each of compounds (4, 6, 14, 17, 19, 20, 23, 24 and 26) of the present invention was suspended in a 5% gum arabic solution (physiological saline) and administered orally twice daily in dose of 30 mg/kg body weight for 10 days. On the day when the administration was terminated, the diameters of tumors were measured. Tumor volume was calculated by the following equation.
Volume of tumor=longest diameter×shortest diameter×shortest diameter×½
The growth rate of tumors was calculated as the proportion of the value obtained by subtracting the initial volume from the final volume in the group to which the drug was administered, to the value obtained by subtracting the initial volume from the final volume in the control group to which a gum arabic solution was administered.

Data set [3] is described as follows: Measurement of size of crystalline particulate (laser diffraction/scattering). The format is physicochemical. To be noted: distilled water as dispersion medium, SALD-2000A. How it is done: The average particle size can be measured by using a per se known method and a measuring equipment. The term “average particle size” refers to a volume-average particle size as measured, for example, by a laser diffraction/scattering particle size distribution measuring apparatus (for example, SALD-2000A manufactured by Shimadzu Corporation). The particle size is usually measured by uniformly dispersing a HER2 inhibitor suspension at a concentration of about 1 to 100 μg/ml at room temperature while being subjected to ultra-sonication for a short period of time such as within 1 minute, or while stirring using a vortex mixer. The aqueous solvent used in the measurement is usually water, but buffer solutions having various pH's, a pseudo-body fluid and 0.5% methyl cellulose solution may be used. […]
The size of fine particles in the suspension of the drug of crystalline particulate obtained in Example 1 was measured. […] Further, the size of particles obtained by comminuting bulk of the compound of Reference Example B4, which was used in Example 1, with a jet mill was measured in the same manner.
The size of fine particles in the suspension of the drug of crystalline particulate obtained in Example 4a was measured. […] Further, crystalline particulate obtained in Example 8a were dispersed again in distilled water and the size of fine particles of the drug was measured in the same manner.

T1 sequence (P04626 23-1255): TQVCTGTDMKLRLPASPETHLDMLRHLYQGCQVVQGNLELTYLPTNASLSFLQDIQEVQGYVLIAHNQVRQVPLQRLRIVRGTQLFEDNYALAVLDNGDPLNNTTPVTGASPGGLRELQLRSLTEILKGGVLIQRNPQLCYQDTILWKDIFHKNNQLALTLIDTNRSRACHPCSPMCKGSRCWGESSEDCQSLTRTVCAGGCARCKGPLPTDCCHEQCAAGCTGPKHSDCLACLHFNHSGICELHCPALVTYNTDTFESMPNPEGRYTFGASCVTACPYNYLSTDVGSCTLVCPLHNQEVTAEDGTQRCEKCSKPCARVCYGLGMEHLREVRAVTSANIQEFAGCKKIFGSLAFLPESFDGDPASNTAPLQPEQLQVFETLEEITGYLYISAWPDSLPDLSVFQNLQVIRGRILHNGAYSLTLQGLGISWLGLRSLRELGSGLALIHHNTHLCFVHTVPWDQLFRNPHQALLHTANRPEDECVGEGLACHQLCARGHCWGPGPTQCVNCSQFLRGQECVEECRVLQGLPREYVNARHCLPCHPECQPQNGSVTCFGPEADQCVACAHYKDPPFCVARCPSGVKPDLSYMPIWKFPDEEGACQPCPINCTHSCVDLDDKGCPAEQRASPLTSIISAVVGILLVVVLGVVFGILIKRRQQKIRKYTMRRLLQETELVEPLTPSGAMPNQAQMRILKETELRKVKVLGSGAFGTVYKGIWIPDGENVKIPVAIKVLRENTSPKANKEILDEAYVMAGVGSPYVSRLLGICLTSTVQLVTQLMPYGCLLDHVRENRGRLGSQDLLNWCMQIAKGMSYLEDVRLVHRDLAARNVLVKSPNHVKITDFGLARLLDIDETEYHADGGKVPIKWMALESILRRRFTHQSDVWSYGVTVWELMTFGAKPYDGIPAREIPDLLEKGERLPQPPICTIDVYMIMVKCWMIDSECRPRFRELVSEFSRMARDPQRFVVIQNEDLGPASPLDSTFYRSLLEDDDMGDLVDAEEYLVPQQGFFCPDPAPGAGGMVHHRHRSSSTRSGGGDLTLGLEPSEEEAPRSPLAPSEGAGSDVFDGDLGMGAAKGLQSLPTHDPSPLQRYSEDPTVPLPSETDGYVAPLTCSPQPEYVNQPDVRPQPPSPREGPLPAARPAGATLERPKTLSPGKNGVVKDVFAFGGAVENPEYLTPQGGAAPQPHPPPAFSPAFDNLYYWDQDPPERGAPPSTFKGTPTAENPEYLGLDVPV

For the molecule `OCCc1nccn1CCCc1ccc(OCc2coc(/C=C/c3ccc(F)cc3F)n2)cc1` [B20, 2-[1-[3-[4-[[2-[(E)-2-(2,4-Difluorophenyl)ethenyl]-1,3-oxazol-4-yl]methoxy]phenyl]propyl]-1H-imidazol-2-yl]-1-ethanol], the melting point is 94 to 96 °C. At HER2, this molecule registered a half-inhibitory concentration (IC50) of 1.5 µM. This molecule displayed an IC50 in data set [1] of less than 0.05 µM.
`OCC(O)Cc1nccn1CCCCc1ccc(OCc2coc(/C=C/c3ccc(C(F)(F)F)cc3)n2)cc1` (centres unmarked) [B24, 3-[1-(4-{4-[(2-{(E)-2-[4-(Trifluoromethyl)phenyl]ethenyl}-1,3-oxazol-4-yl)methoxy]phenyl}butyl)-1H-imidazol-2-yl]-1,2-propanediol] returned a melting point of 142 to 143 °C. In addition, the “Inhibition ratio (%)” value in data set [2] turned out to be 28%.
In turn, `Cc1cccc(/C=C/c2nc(COc3ccc(CCCCn4ccnc4CCO)cc3)co2)c1` [B11, 2-[1-[4-[4-[[2-[(E)-2-(3-Methylphenyl)ethenyl]-1,3-oxazol-4-yl]methoxy]phenyl]butyl]-1H-imidazol-2-yl]-1-ethanol] registered a melting point of 109 to 111 °C. The molecule further displayed an IC50 against HER2 of 1.1 µM. Moreover, in data set [1], the IC50 is less than 0.05 µM.
In the case of `Cc1cccc(/C=C/c2nc(COc3ccc(CCCCn4ccnc4CC(O)CO)cc3)co2)c1` (centres unmarked) [B22, 3-(1-{4-[4-({2-[(E)-2-(3-Methylphenyl)ethenyl]-1,3-oxazol-4-yl}methoxy)phenyl]butyl}-1H-imidazol-2-yl)-1,2-propanediol], the melting point was 102 to 104 °C. Further, the IC50 against HER2 was found to be 1.9 µM. The same molecule had an IC50 in data set [1] of less than 0.05 µM.
As to `OCCc1nccn1CCCCc1ccc(OCc2coc(/C=C/c3ccc(F)cc3F)n2)cc1` [Reference Example B19, 2-[1-[4-[4-[[2-[(E)-2-(2,4-Difluorophenyl)ethenyl]-1,3-oxazol-4-yl]methoxy]phenyl]butyl]-1H-imidazol-2-yl]-1-ethanol], the melting point lay within 93 to 95 °C. It took 0.017 µM to reach half-maximal inhibition in data set [1] (IC50).
`Fc1ccc(/C=C/c2nc(COc3cccc(CCCn4ccnn4)c3)co2)cc1` [B3, 1-{3-[3-({2-[(E)-2-(4-Fluorophenyl)ethenyl]-1,3-oxazol-4-yl}methoxy)phenyl]propyl}-1H-1,2,3-triazole] registered a melting point of 105 to 106 °C. Also, on HER2, it took 0.18 µM to reach half-maximal inhibition (IC50). Further, the IC50 in data set [1] was less than 0.05 µM.
For `OCC(O)Cc1nccn1CCCCc1ccc(OCc2coc(/C=C/c3ccc(F)cc3F)n2)cc1` (centres unmarked) [Reference Example B26, 3-(1-{4-[4-({2-[(E)-2-(2,4-Difluorophenyl)ethenyl]-1,3-oxazol-4-yl}methoxy)phenyl]butyl}-1H-imidazol-2-yl)-1,2-propanediol], the half-maximal inhibitory concentration (IC50) against HER2 was 0.92 µM; in data set [1], less than 0.05 µM. The “Inhibition ratio (%)” value in data set [2] turned out to be 15%.
Take `FC(F)(F)c1ccc(/C=C/c2nc(COc3ccc(CCCn4ccnn4)cc3)co2)cc1` [B5, 1-(3-{4-[(2-{(E)-2-[4-(Trifluoromethyl)phenyl]ethenyl}-1,3-oxazol-4-yl)methoxy]phenyl}propyl)-1H-1,2,3-triazole]: the melting point lay in the range of 157 to 158 °C. Also, the IC50 in data set [1] is less than 0.05 µM.
As to `FC(F)(F)c1ccc(/C=C/c2nc(COc3ccc(CCCCn4ccnn4)cc3)co2)cc1` [Reference Example B4, 1-(4-{4-[(2-{(E)-2-[4-(Trifluoromethyl)phenyl]ethenyl}-1,3-oxazol-4-yl)methoxy]phenyl}butyl)-1H-1,2,3-triazole], the figures for the IC50 (against HER2; in data set [1]) were 0.1 µM and less than 0.05 µM, respectively. Also, in data set [2], the “Inhibition ratio (%)” value is 5%. In addition, the figures for the “Average particle size (μm)” value in data set [3] and in data set [3] (listed as Reference Example 4B) were not above 4 μm and 3.85 μm, respectively.
For `FC(F)(F)c1ccc(/C=C/c2nc(COc3cccc(CCCn4ccnn4)c3)co2)cc1` [Reference Example B6, 1-(3-{3-[(2-{(E)-2-[4-(Trifluoromethyl)phenyl]ethenyl}-1,3-oxazol-4-yl)methoxy]phenyl}propyl)-1H-1,2,3-triazole], the melting point lay within 115 to 116 °C. The half-maximal inhibitory concentration (IC50) against HER2 turned out to be 1.2 µM. In data set [1], this molecule gave an IC50 of less than 0.05 µM. Moreover, in data set [2], the “Inhibition ratio (%)” value was 28%.
The molecule `OCC(O)Cc1nccn1CCCCc1ccc(OCc2coc(/C=C/c3ccc(F)cc3)n2)cc1` (centres unmarked) [B23, 3-(1-{4-[4-({2-[(E)-2-(4-Fluorophenyl)ethenyl]-1,3-oxazol-4-yl}methoxy)phenyl]butyl}-1H-imidazol-2-yl)-1,2-propanediol] had a melting point of 114 to 116 °C. In data set [2], the “Inhibition ratio (%)” value came out at 27%.
As to `Fc1ccc(/C=C/c2nc(COc3ccc(CCCCn4ccnn4)cc3)co2)cc1` [Reference Example B2, 1-{4-[4-({2-[(E)-2-(4-Fluorophenyl)ethenyl]-1,3-oxazol-4-yl}methoxy)phenyl]butyl}-1H-1,2,3-triazole], the melting point was 124 to 125 °C. The molecule further returned a concentration for half-maximal inhibition (IC50) against HER2 of 1.9 µM. The molecule also displayed an IC50 in data set [1] of less than 0.05 µM.

A word on the IC50: it is the midpoint of a concentration-inhibition curve. What is called melting point is the temperature, or range, at which the solid turns liquid.
